Where two headings read alike, the source gives them in different places.
Tests used:
[1] = tested on: atheromatous smooth muscle cells (ASA); test: Intracellular communication: transference of Lucifer Yellow dye after microinjection, atheromatous cells; format: cell-based, human; settings: 0.4 µM (200 ng/ml for PCA-4230), incubated for 1 hour
From the text: (§1) Materials and Methods. Non-arteriosclerotic aorta smooth muscle cells (NASA), obtained from biopsies of organs to be used in heart transplants were used. The atheromatous smooth muscle cells (ASA) were obtained from biopsies obtained from arteriosclerotic arteries coming from aorta reconstruction. These biopsies were used as a source for cultures by explant, avoiding the use of enzymatic additives or detergents. The cells were left to grow until confluence, in M199 medium, supplemented with 5% BFS and antibiotics as in the previous example. The pureness of the cultures was determined by specific staining of the same with anti-α actin of smooth muscle cells.
(§2) Intracellular communication was studied by evaluating the transference of the fluorescent dye Lucifer Yellow from a single cell, in which it is inserted by microinjection, to the surrounding cells. The extent of this transference of dye was determined in 40 normal cells and in 100 atheromatous cells.
(§3) The same experiment was carried out with Verapamyl 0.4 µM, used as a standard drug with calcium antagonist activity and with 0.02% dimethylsulfoxide, the vehicle used in both cases.
(§4) The same study was repeated with the vehicle and with Verapamyl.

[2] = tested on: c-fos and c-jun proto-oncogenes; test: Expression of c-fos and c-jun proto-oncogenes (Northern hybridization of total RNA) in serum-stimulated cells; format: cell-based, rat; settings: 5x10^-5M; cells stimulated for 30 minutes with 10% FCS; result in words
Protocol: The expression of the c-fos and c-jun proto-oncogenes was analyzed in cells fasted for 48h (cultured in serum-free DMEM, containing BSA 0.2%) and subsequently stimulated for 30 minutes with 10% FCS in the presence of absence of PCA-4230 (5x10^-5M). The total RNA was extracted from said cells using a previously described method (P Chomczynski and N. Sacchi (1987), Ann. Biochem. 162: 156-159).
Immediately, the extracted RNA (10 µg) was resolved by eletrophoresis in agarose gel (1.2% agarose + formaldehyde + formamide). The gel was then transferred to a nylon membrane and this was hybridized with specific probes for c-fos and c-jun (previously labeled with [^32P]-deoxy CTP). The membrane was finally exposed to a sensitive film (Kodak X-OMAT) for 8-17 hours at -70^º C. The level of expression of the oncogenes was brought back to normal by using a specific probe for β-actin.

[3] = tested on: Non-arteriosclerotic aorta smooth muscle cells (NASA); test: Intracellular communication: transference of Lucifer Yellow dye after microinjection, normal cells; format: cell-based, human; settings: NORMAL (HEALTHY) cells, 0.4 µM, incubated for 1 hour
From the text: as §1, §2, §3, §4

[4] = tested on: A10 cells; test: Inhibition of smooth muscle cell proliferation induced by bovine fetal serum (DNA synthesis by inclusion of BrdU); format: cell-based, rat; settings: for inhibition at 0.5 µM / inhibition at 5 µM / inhibition at 50 µM: Rattus norvegicus; for % LABELED CELLS (Average ± S.D.): 10% bovine fetal serum, BrdU inclusion
Protocol: In these experiments a rat aorta smooth muscle cell line obtained from American Type Culture Collection (ATCC;A10 CRL 1476) was used. The cells were grown in a humidified atmosphere (37^º C; 95% air - 5% CO2) in Dulbecco's Modified Eagle Medium (DMEM) containing 10 % bovine fetal serum supplemented with 20 mM L-glutamine, 100 IU/ml penicillin, 100 µg/ml streptomycin and 0.25 µg/ml Amphotericin B (antibiotic-antimycotic solution, Gibco). The medium was replaced every two days.
To study the effect of PCA-4230 and of the other compounds, the DNA synthesis was measured by deterimining the inclusion of BrdU (an analogue of thymidine). The cells were isolated by trypsinization (trypsin 0.05% in EDTA 0.02%) and were seeded on glass cover-glasses in culture plates of 24 cups, at a density of 10^4 cells per cup. The cells were grown for 24 hours in DMEM with 10% BFS to allow adhesion of the cells to the slides. Afterwards, the cells were washed with serum-free DMEM containing 0.2% bovine serum albumin (BSA). They were incubated for 48 hours in the same medium to obtain quiescent cells. Afterwards, proliferation was induced by replacement of the medium by DMEM containing 10% bovine fetal serum, along with the vehicle or drugs at the suitable concentrations (0.5 to 50 µM for PCA-4230 and 50 µM for the rest of the compounds): The cells were grown in these conditions for 16 hours and, afterwards, BrdU was added and the culture was continued for two to three hours.

[5] = Phase II Clinical Trial, Internal Report; result in words; cited from earlier work
[6] = tested on: gap junctions; test: Freeze Fracture Electron Microscopy (FFEM) of gap junction morphology; format: cell-based, human; settings: cells treated with PCA-4230, result in words
From the text: Subsequently, the cells were fixed with glutaraldehyde and were studied by FFEM "Freeze Fracture Electron Microscopy" to determine the morphology of the gap junctions. The cells were frozen at -110^º C and were fractured. The breakage planes are the planes with less resistance that correspond to the surface of the inside membrane, between lipid bilayers.

[7] = tested on: smooth muscle cells; settings: from J. Bernhardt et al. (1993); cited from earlier work
[8] = A10, Table Ib, 50,0 µM/L, versus vehicle, read-out: % INHIBITIÓN
[9] = Table Ib, 50,0 µM/L, two experiments in triplicate
[10] = Table Ib, 50,0 µM/L, versus vehicle

COc1ccc(CCN(C)CCCC(C#N)(c2ccc(OC)c(OC)c2)C(C)C)cc1OC (stereo not drawn) [VERAPAMYL, Verapamyl, reference compound]
N° CELLS LABELED BY INJECTION [1]: 7,20 ± 0,54
N° CELLS LABELED BY INJECTION ([1]; listed as Verapamyl): did not show any significant effects

CCOC(=O)C1=C(C)NC(C)=C(C(=O)OCCN2C(=O)c3ccccc3S2(=O)=O)C1C (stereo not drawn) [PCA-4230]
transcription of the c-fos and c-jun proto-oncogenes [2]: suppressive effect
N° CELLS LABELED BY INJECTION [3]: 2,40 ± 0,18
cell proliferation induced by bovine fetal serum ([4]; 0.5 to 50 µM, result in words): inhibited cell proliferation induced by bovine fetal serum proportionally to the concentration
inhibition at 0.5 µM ([4]; A10, Table Ia, 0,5 µM/L, versus vehicle, read-out: % INHIBITIÓN): 26.1%
inhibition at 5 µM ([4]; A10, Table Ia, 5,0 µM/L, versus vehicle, read-out: % INHIBITIÓN): 53.2%
inhibition at 50 µM ([4]; A10, Table Ia, 50,0 µM/L, versus vehicle, read-out: % INHIBITIÓN): 95.1%
inhibition at 0.5 µM ([4]; A10, Table Ib, 0,5 µM/L, versus vehicle, read-out: % INHIBITIÓN): 25%
inhibition at 5 µM ([4]; A10, Table Ib, 5,0 µM/L, versus vehicle, read-out: % INHIBITIÓN): 57.4%
inhibition at 50 µM [4, 8]: 87.9%
% LABELED CELLS (Average ± S.D.) ([4]; Table Ia, 0,5 µM/L, three experiments in triplicate): 15,0 ± 2,3%
% LABELED CELLS (Average ± S.D.) ([4]; Table Ia, 5,0 µM/L, three experiments in triplicate): 9,5 ± 1,1%
% LABELED CELLS (Average ± S.D.) ([4]; Table Ia, 50,0 µM/L, three experiments in triplicate): 1,0 ± 0,6%
% LABELED CELLS (Average ± S.D.) ([4]; Table Ib, 0,5 µM/L, two experiments in triplicate): 22,3 ± 0,9%
% LABELED CELLS (Average ± S.D.) ([4]; Table Ib, 5,0 µM/L, two experiments in triplicate): 12,7 ± 1,4%
% LABELED CELLS (Average ± S.D.) [4, 9]: 3,6 ± 0,3%
hypolipidemic effect [5]: moderate hypolipidemic effect
morphology, distribution and number of the gap junctions [6]: No differences were observed
N° CELLS LABELED BY INJECTION [1]: 2.42 ± 0.34

Clc1ccccc1CN1CCc2sccc2C1 [THICLOPYD., Thiclopydine, reference compound]
inhibition at 50 µM [4, 8]: 17.1%
% LABELED CELLS (Average ± S.D.) [4, 9]: 24,7 ± 1,5%
% INHIBITIÓN [4, 10]: weak inhibitory effect

CC(=O)Oc1ccccc1C(=O)O [ASPIRIN, aspirin, reference compound]
aspirin concentrations at which inhibition of the proliferation of smooth muscle cells is achieved [7]: higher than 270 µM
inhibition at 50 µM ([4]; A10, read-out: % INHIBITIÓN): 25.5%
% LABELED CELLS (Average ± S.D.) [4, 9]: 22.2 ± 1,8%
% INHIBITIÓN [4, 10]: weak inhibitory effect
